Data: patent US8524691B2, “Phosphonated rifamycins and uses thereof for the prevention and treatment of bone and joint infections” (The Medicines Company, priority 2008, dated 2013)
In brackets after ≈: the same amount, converted by molar mass. Several values for one entry are separate records, joined by “and”; a condition that tells them apart may be missing. Equal values may be shown once. Read-outs that look alike come from different tables or passages of the source.

How the values were obtained:
[1] = system: S. aureus ATCC 13709; test: microbe, parasite or virus in culture; type: cell-based; settings: for Serum dependence of antibacterial activity (in words): MIC with versus without serum; for MIC: Staphylococcus aureus, ATCC13709, 18 h
Protocol: (§1) Susceptibility of S. aureus strains to the known antibiotics and synthesized compounds was determined by following the guidelines set by NCCLS (M26-A). Compounds were diluted two-fold serially in DMSO and transferred to cation-adjusted Mueller Hinton broth (CAMHB; Becton Dickinson). 50 μL of compounds diluted in CAMHB was mixed with 100 μL of bacteria diluted in CAMHB in 96-well microtiter plates. The final concentration of micro-organisms in the assay was 5×10^5c.f.u. per mL and the final concentration of DMSO in the assay was 1.25%. Assays were set up in duplicate and incubated at 37° C. for 18 h. The lowest concentration of compound that inhibited visible growth was reported as the minimum inhibitory concentration (MIC).
Susceptibility testing experiments were also carried out in the presence of serum. These experiments were carried out similar to the susceptibility testing with the following modifications. 75 μL of compounds diluted in CAMHB was mixed with 75 μL of bacteria diluted in 100% serum from any given source (commercial pooled mouse serum (MS) and human serum (HS), Equitech-Bio Inc.) or diluted in 8% purified human serum albumin (HSA) (Calbiochem). The final concentration of animal serum in the assay was 50% and the final concentration of purified human serum albumin in the assay was 4%; the concentrations of all other components were identical to those described for susceptibility testing.

[2] = system: S. aureus ATCC 29213; test: Antibacterial susceptibility (MIC), NCCLS broth microdilution; type: cell-based; settings: CAMHB, 37° C., 18 h
Protocol: as §1

[3] = system: S. aureus ATCC 13709^A, Novobiocin and Rifampicin resistant variant; test: as above; type: cell-based
Protocol: as §1

[4] = system: S. aureus ATCC 13709; test: microbe, parasite or virus in culture; type: cell-based; settings: for Antibacterial activity (in words, from Table 1): S. aureus MIC
Protocol: as §1

[5] = system: Novobiocin resistant mutant strain of S. aureus ATCC 13709; test: Prophylactic efficacy in rat model of S. aureus bone infection; type: in vivo; settings: tibia 24 h postinfection; for Measured bacterial titer, parent drug: rifabutin 20 mg/kg, listed as Parent drug
Protocol: To determine the in vivo activity of bisphosphonated prodrugs of Rifamycin derived antibacterials in comparison to their non-bisphosphonated parents, compounds 18, 19, 48a, 59, 66, 89, 95, 102, 110, 142b and 164 and their parent drug rifabutin were used as prophylactic therapeutics in an animal model of infection. Specifically, a spontaneous Novobiocin resistant mutant strain of S. aureus ATCC 13709 (a clinical osteomyelitis isolate), was grown overnight at 37° C. in brain heart infusion broth (BHIB). After 16 h of growth, cells were subcultured into fresh BHIB and incubated for 4 to 5 h at 37° C. The cells were washed twice with phosphate-buffered saline (PBS) and resuspended in BHIB supplemented with 10% (vol./vol.) fetal bovine serum at a density of approximately 10^10 colony forming units (CFU)/ml (based upon turbidimetry). The suspension was aliquoted and a portion was used to check the CFU count. The culture was stored frozen (−80° C.) and was used without subculture. For use as an inoculum the culture was thawed, diluted in PBS and kept in an ice bath until it was used.
Animals were infected as described by O'Reilly et al. (Antimicrobial Agents and Chemotherapy (1992), 36(12): 2693-97) to generate the bone infection. Female CD rats (age, 57 to 70 days; n=5/group; Charles River, St-Constant, Canada) were anaesthetized by isofluorane before and during the surgery. Following complete induction of anesthesia, the rat was placed ventral side up and hair was shaved from the surgical site. The skin over the leg was cleaned and disinfected (proviodine-ethanol 70%). A longitudinal incision below the knee joint was made in the sagital plane. The incision was made over the bone below the “knee joint” (tibia head or condyle) but not completely extending to the ankle. A high speed drill fitted with a 2 mm bulb bit was used to drill a hole into the medullar cavity of the tibia. Rats were injected intra-tibially with 0.05 ml 5% sodium morrhuate (sclerosing agent) and then with 0.05 ml of S. aureus suspension (ca. 2×10^7 CFU/rat). The hole was sealed by applying a small amount of dry dental cement which immediately absorbs fluids and adheres to the site. The wound was closed using 3 metal skin clips. Moxifloxacin (as a positive control) was injected once at 10 mg/kg intravenously 1 h postinfection in saline, while the Rifabutin derived prodrugs (prepared in 0.9% saline) were injected at the dose indicated in Table 3 as a single intravenous bolus at different time points prior to the infection.
Infected rats were sacrificed by CO2 asphyxiation 24 h postinfection to monitor the bacterial CFU count. Infected tibiae were removed, dissected free of soft tissue, and weighed. The bones were ground, 50 mg of charcoal were added and the powder was resuspended in 5 ml 0.9% NaCl, serially diluted and processed for quantitative cultures. Treatment efficacy was measured in terms of Log viable bacteria (Log CFU per gram of bone). […] The limit of detection is 2 Log CFU. Statistical comparisons of viable bacterial counts for the different treated and untreated groups were performed with the Dunnett's multiple-comparison test. Differences were considered significant when the P value was <0.05 when comparing treated infected animals to the untreated infected ones. The doses used, the amount of time separating the treatment from the time of infection and the treatment outcomes are shown in Table 3.

Compound	Minimum inhibitory concentration, ATCC 13709 + 50% Human Serum ([1]; 50% Human Serum) [µg/mL]	Minimum inhibitory concentration, ATCC 13709 + 50% Mouse Serum ([1]; 50% Mouse Serum) [µg/mL]	Minimum inhibitory concentration, ATCC 13709 + 50% Rat Serum [1] [µg/mL]	Minimum inhibitory concentration, S. aureus ATCC 29213 [2] [µg/mL]	Minimum inhibitory concentration, S. aureus ATCC 13709^A [3] [µg/mL]	Minimum inhibitory concentration, S. aureus ATCC 13709 ([4]; CAMHB, 37° C., 18 h) [µg/mL]	other results
CO[C@H]1/C=C/O[C@@]2(C)Oc3c(C)c(O)c4c(c3C2=O)C2=NC3(CCN(CC(C)C)CC3)NC2=C(NC(=O)/C(C)=C\C=C\[C@H](C)[C@H](OC(=O)CN(C)CCOC(=O)CNC(=O)CCC(P(=O)(O)O)P(=O)(O)O)[C@@H](C)[C@@H](O)[C@@H](C)[C@H](OC(C)=O)[C@@H]1C)C4=O [Compound 42]	0.0625	0.125	0.03125	0.25 (≈ 0.2 µM)	>128	0.125 (≈ 0.1 µM)	Antibacterial activity (in words, from Table 1) [4]: very low MICs whether in the absence or in the presence of serum
CO[C@H]1/C=C/O[C@@]2(C)Oc3c(C)c(O)c4c(c3C2=O)C2=NC3(CCN(CC(C)C)CC3)NC2=C(NC(=O)/C(C)=C\C=C\[C@H](C)[C@H](OC(=O)CN(CCCCC(P(=O)(O)O)P(=O)(O)O)CCOC(C)=O)[C@@H](C)[C@@H](O)[C@@H](C)[C@H](OC(C)=O)[C@@H]1C)C4=O [Compound 48b]	0.5	0.25	0.0625	0.5 (≈ 0.41 µM)	>128	0.25 (≈ 0.205 µM)	Antibacterial activity (in words, from Table 1) [4]: very low MICs whether in the absence or in the presence of serum
CCCC(=O)OCCN(CCC(P(=O)(O)O)P(=O)(O)O)CC(=O)O[C@@H]1[C@@H](C)[C@@H](O)[C@@H](C)[C@H](OC(C)=O)[C@H](C)[C@@H](OC)/C=C/O[C@@]2(C)Oc3c(C)c(O)c4c(c3C2=O)C2=NC3(CCN(CC(C)C)CC3)NC2=C(NC(=O)/C(C)=C\C=C\[C@@H]1C)C4=O [Compound 52]	16	2	0.5	8 (≈ 6.56 µM)	>128	4 (≈ 3.28 µM)	Serum dependence of antibacterial activity (in words) [1]: significant increase in antibacterial activity in serum
CCCCOC(=O)NCCN(CCCCC(P(=O)(O)O)P(=O)(O)O)CC(=O)O[C@@H]1[C@@H](C)[C@@H](O)[C@@H](C)[C@H](OC(C)=O)[C@H](C)[C@@H](OC)/C=C/O[C@@]2(C)Oc3c(C)c(O)c4c(c3C2=O)C2=NC3(CCN(CC(C)C)CC3)NC2=C(NC(=O)/C(C)=C\C=C\[C@@H]1C)C4=O [Compound 71]	16	8	1	8 (≈ 6.26 µM)	>128	4 (≈ 3.13 µM)	Serum dependence of antibacterial activity (in words) [1]: significant increase in antibacterial activity in serum
CO[C@H]1/C=C/O[C@@]2(C)Oc3c(C)c(O)c4c(c3C2=O)C2=NC3(CCN(CC(C)C)CC3)NC2=C(NC(=O)/C(C)=C\C=C\[C@H](C)[C@H](OC(=O)CN(C)C(=O)CNC(=O)[C@@H](Cc2ccccc2)NC(=O)CNC(=O)CCC(P(=O)(O)O)P(=O)(O)O)[C@@H](C)[C@@H](O)[C@@H](C)[C@H](OC(C)=O)[C@@H]1C)C4=O.N.N [Compound 79a]			64	16	>128	16	Minimum inhibitory concentration, ATCC 13709 + 50% Human Serum [1]: >128 µg/mL; Minimum inhibitory concentration, ATCC 13709 + 50% Mouse Serum [1]: >128 µg/mL
CO[C@H]1/C=C/O[C@@]2(C)Oc3c(C)c(O)c4c(c3C2=O)C2=NC3(CCN(CC(C)C)CC3)NC2=C(NC(=O)/C(C)=C\C=C\[C@H](C)[C@H](OC(=O)CNC(=O)CNC(=O)[C@@H](Cc2ccccc2)NC(=O)CNC(=O)CCC(P(=O)(O)O)P(=O)(O)O)[C@@H](C)[C@@H](O)[C@@H](C)[C@H](OC(C)=O)[C@@H]1C)C4=O.N.N [Compound 79b]	128	64	8	64	>128	64	
COc1c(N2C[C@@H]3CCCN[C@@H]3C2)c(F)cc2c(=O)c(C(=O)O)cn(C3CC3)c12 [Moxifloxacin, reference compound]							Measured bacterial titer, positive control ([5]; Moxifloxacin 10 mg/kg intravenously once 1 h postinfection, listed as Positive control): 2.62 ± 0.37 Log CFU/g of bone and 3.22 ± 0.65 Log CFU/g of bone and 2.27 ± 0.21 Log CFU/g of bone and 2.63 ± 0.65 Log CFU/g of bone and 2.06 ± 0.10 Log CFU/g of bone and 2.95 ± 1.07 Log CFU/g of bone and 2.2 ± 0.28 Log CFU/g of bone and 3.01 ± 0.74 Log CFU/g of bone
CO[C@H]1/C=C/O[C@@]2(C)Oc3c(C)c(O)c4c(c3C2=O)C2=NC3(CCN(CC(C)C)CC3)NC2=C(NC(=O)/C(C)=C\C=C\[C@H](C)[C@H](O)[C@@H](C)[C@@H](O)[C@@H](C)[C@H](OC(C)=O)[C@@H]1C)C4=O [Rifabutin, reference compound]							MIC ([1]; read-out: Minimum inhibitory concentration, ATCC 13709 + 50% Human Serum): 0.0312 µg/mL; MIC ([1]; read-out: Minimum inhibitory concentration, ATCC 13709 + 50% Mouse Serum): 0.0625 µg/mL; MIC ([1]; read-out: Minimum inhibitory concentration, ATCC 13709 + 50% Rat Serum): 0.0312 µg/mL; Measured bacterial titer, parent drug ([5]; 1 day prior to infection): 2.03 ± 0.07 Log CFU/g of bone and 2.09 ± 0.06 Log CFU/g of bone and 2.03 ± 0.09 Log CFU/g of bone and 2.07 ± 0.09 Log CFU/g of bone and 2.35 ± 1.12 Log CFU/g of bone; Measured bacterial titer, parent drug ([5]; 5 days prior to infection): 2.75 ± 0.94 Log CFU/g of bone and 4.27 ± 1.91 Log CFU/g of bone and 4.34 ± 0.79 Log CFU/g of bone and 4.71 ± 1.05 Log CFU/g of bone; MIC ([2]; Staphylococcus aureus, ATCC29213, read-out: Minimum inhibitory concentration, S. aureus ATCC 29213): 0.0156 µg/mL (≈ 0.0184 µM); MIC ([4]; Staphylococcus aureus, ATCC13709, CAMHB, 37° C., 18 h, read-out: Minimum inhibitory concentration, S. aureus ATCC 13709): 0.0312 µg/mL (≈ 0.0369 µM)
